2 molecules from paper PMC8213057, “Targeting ALK2: An Open Science Approach to Developing Therapeutics for the Treatment of Diffuse Intrinsic Pontine Glioma” (Journal of Medicinal Chemistry, 2020) can be followed below.

One test deals with T1, RIPK5 (Homo sapiens, UniProt Q6XUX3).
T1 sequence (Q6XUX3 1-929): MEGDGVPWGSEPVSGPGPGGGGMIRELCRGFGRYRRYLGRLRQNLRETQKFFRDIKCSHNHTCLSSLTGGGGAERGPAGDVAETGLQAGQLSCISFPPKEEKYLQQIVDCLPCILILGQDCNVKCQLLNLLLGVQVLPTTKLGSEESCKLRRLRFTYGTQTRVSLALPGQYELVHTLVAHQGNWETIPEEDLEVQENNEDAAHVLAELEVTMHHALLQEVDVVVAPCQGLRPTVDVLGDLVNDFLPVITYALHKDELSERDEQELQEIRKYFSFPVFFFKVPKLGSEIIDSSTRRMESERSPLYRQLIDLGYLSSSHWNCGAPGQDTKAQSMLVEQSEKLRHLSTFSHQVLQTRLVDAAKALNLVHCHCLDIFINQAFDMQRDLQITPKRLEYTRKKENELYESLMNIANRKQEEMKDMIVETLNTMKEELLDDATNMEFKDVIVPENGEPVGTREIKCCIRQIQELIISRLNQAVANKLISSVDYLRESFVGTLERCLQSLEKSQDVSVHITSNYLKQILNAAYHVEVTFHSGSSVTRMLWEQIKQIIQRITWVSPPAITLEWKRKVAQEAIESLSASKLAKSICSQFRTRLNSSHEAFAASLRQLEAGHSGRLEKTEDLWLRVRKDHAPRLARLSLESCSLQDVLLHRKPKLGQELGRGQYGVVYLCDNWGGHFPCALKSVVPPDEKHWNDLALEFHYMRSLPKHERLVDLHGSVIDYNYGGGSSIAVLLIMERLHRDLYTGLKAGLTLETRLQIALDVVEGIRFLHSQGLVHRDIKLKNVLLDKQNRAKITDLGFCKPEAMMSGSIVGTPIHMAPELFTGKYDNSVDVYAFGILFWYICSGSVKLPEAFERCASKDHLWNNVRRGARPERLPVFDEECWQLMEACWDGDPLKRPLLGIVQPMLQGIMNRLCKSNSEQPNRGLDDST
Put plainly: biochemical. To be noted: read-out: % enzyme activity, 1 μM; Run 1, Run 2.

The target in another test is T2, PDK1/PDPK1 (Homo sapiens, UniProt O15530).
T2 sequence (O15530 1-556): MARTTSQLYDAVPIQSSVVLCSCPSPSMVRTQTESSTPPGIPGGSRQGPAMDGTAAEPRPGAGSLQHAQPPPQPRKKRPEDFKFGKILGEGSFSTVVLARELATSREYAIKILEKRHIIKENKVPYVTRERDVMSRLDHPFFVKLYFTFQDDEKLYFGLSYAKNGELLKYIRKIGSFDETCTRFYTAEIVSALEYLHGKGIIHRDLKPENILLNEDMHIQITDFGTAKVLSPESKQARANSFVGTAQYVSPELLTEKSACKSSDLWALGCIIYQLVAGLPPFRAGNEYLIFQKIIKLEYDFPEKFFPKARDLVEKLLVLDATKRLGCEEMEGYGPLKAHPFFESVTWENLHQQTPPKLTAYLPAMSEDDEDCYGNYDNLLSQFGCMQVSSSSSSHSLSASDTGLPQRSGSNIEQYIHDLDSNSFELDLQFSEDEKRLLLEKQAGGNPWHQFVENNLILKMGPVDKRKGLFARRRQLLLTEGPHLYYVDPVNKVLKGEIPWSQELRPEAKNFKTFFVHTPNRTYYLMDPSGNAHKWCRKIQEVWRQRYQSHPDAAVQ
To be noted: 1 μM; Run 1, Run 2.

For a further test, the target named is KDR/VEGFR2 (Homo sapiens, UniProt P35968). As to the kind of experiment: biochemical. The conditions noted are these: read-out: % enzyme activity, 1 μM; Run 1, Run 2.
A further test addresses DAPK2 (Homo sapiens, UniProt Q9UIK4). The conditions noted are these: 1 μM; Run 1, Run 2.
A further test addresses c-Src (Homo sapiens, UniProt P12931). To be noted: 1 μM; Run 1, Run 2.
A further test concerns the target T3, ARK5/NUAK1 (Homo sapiens, UniProt O60285).
T3 sequence (O60285 1-661): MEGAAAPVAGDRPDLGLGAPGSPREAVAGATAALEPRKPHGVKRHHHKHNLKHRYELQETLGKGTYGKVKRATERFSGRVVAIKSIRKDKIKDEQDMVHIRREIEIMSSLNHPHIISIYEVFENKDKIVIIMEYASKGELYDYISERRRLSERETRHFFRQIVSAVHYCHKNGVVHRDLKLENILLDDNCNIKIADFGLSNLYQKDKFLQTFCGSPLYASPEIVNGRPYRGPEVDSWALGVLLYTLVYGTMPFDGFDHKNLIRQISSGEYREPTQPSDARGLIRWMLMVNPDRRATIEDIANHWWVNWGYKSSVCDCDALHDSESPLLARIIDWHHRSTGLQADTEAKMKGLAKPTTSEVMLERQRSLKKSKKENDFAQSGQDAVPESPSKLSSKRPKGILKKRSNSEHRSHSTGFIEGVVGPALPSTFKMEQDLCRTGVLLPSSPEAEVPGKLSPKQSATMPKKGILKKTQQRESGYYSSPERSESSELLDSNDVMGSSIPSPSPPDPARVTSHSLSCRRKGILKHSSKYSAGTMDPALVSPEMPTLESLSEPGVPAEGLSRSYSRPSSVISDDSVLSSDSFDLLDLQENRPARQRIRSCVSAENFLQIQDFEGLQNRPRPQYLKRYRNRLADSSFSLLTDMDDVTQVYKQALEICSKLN
To be noted: 1 μM; Run 1, Run 2.

Chain of c-Src (P12931 whole entry): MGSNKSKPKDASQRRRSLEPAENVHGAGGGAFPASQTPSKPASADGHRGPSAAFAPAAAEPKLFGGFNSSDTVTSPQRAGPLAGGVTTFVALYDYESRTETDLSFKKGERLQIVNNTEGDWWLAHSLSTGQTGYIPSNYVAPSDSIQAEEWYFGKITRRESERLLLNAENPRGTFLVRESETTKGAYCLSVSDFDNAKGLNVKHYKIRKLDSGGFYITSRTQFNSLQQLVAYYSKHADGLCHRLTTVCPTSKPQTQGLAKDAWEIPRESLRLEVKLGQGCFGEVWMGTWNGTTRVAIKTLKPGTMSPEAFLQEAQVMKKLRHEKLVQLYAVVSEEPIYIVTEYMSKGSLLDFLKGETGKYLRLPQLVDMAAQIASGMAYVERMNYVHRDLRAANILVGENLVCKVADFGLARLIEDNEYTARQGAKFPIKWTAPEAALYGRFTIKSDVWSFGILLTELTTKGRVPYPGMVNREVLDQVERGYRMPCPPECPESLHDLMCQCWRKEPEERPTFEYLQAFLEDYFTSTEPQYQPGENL
Chain of DAPK2 (Q9UIK4 whole entry): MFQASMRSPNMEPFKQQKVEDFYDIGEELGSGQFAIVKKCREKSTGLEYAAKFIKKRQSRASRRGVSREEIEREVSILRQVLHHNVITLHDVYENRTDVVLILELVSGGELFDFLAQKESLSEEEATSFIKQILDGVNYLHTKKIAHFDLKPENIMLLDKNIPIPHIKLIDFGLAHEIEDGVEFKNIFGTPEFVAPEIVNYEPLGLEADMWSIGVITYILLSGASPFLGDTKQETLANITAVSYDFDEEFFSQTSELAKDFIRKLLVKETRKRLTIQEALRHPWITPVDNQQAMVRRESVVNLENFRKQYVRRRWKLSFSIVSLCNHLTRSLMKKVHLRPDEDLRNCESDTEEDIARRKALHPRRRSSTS
Chain of KDR/VEGFR2 (P35968 20-1356): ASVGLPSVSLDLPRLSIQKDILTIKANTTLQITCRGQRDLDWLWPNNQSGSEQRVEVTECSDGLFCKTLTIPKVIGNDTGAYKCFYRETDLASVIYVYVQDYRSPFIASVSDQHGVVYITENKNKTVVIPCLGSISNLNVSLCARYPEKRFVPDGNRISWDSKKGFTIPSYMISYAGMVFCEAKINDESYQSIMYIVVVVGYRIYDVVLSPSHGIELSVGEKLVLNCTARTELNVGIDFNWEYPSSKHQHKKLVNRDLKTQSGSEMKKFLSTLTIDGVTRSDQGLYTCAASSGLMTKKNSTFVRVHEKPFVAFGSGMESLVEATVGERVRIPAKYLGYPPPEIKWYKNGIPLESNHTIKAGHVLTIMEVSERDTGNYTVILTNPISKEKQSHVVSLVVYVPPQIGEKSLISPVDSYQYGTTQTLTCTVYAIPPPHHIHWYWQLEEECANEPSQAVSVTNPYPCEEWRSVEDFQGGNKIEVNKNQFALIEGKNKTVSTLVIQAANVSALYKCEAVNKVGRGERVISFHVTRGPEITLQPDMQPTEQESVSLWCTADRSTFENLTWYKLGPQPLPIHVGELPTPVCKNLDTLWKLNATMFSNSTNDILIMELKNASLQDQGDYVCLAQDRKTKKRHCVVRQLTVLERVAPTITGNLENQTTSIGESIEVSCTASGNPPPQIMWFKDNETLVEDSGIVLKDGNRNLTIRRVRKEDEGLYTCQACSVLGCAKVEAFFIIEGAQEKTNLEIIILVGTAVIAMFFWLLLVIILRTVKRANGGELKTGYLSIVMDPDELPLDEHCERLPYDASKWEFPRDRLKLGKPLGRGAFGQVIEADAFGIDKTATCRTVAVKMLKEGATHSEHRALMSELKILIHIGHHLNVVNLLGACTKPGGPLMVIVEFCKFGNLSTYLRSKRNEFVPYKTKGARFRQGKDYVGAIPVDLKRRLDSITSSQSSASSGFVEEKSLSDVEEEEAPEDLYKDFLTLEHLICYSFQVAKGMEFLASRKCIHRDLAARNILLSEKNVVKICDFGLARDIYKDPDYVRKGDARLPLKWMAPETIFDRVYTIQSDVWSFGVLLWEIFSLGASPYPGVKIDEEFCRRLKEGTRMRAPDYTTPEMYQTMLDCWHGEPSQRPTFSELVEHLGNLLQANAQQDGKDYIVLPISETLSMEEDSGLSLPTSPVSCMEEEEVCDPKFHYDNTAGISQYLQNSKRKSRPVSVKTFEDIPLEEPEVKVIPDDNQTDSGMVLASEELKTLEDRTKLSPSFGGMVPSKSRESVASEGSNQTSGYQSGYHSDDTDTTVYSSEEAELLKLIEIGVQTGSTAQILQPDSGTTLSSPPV

On to `COc1cc(-c2cncc(-c3ccc(N4C[C@@H](C)N(C)[C@@H](C)C4)cc3)c2C)cc(F)c1C(N)=O` [Compound 26c, 2-Fluoro-6-methoxy-4-(4-methyl-5-(4-((3R,5S)-3,4,5-trimethylpiperazin-1-yl)phenyl)pyridin-3-yl)benzamide], for which the remaining activity at 1 µM on RIPK5 turned out to be 86.8%; at KDR/VEGFR2, 88.4%. Also, the “% enzyme activity” value on PDK1/PDPK1 is reported as 94.36%; at DAPK2, 95.98%; on c-Src, 97.10%; on ARK5/NUAK1, 93.75%.
In the case of `COc1cc(-c2cncc(-c3ccc(N4CCN(C)CC4)cc3)c2C)cc(F)c1C(N)=O` [Compound 26a, 2-Fluoro-6-methoxy-4-(4-methyl-5-(4-(4-methylpiperazin-1-yl)phenyl)pyridin-3-yl)benzamide], the remaining activity at 1 µM on RIPK5 was determined as 83.1%; at KDR/VEGFR2 it was 95.9%. In addition, the “% enzyme activity” value at PDK1/PDPK1 was 91.49%; on DAPK2, 101.48%; at c-Src it was 96.22%; at ARK5/NUAK1, 90.26%.
